In the supplement of paper PMC4862054:

Experiments:
Conditions in all cases: incubation time: 72 h
[1] = system: MDA-MB-436; experiment: normalised response (% of control), CellTox Green; higher = less cell death (100 = DMSO, 0 = benzethonium chloride kill control)
Summary of the method: (§1)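 Breast cancer cell lines (20 µl suspension) were seeded into 384-well plates holding compound at 5 concentrations in 10-fold steps over a compound-specific 10,000-fold range, then incubated 72 h. CellTox Green fluorescence (485/520 nm) was read first, then CellTiter-Glo luminescence after 10 min at room temperature. Each plate was normalised to 0.1 % DMSO (100) and a positive kill control (0). Each value is the normalised signal at a single concentration of the series.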

[2] = system: CAL-85-1; experiment: as above
Summary of the method: as §1

[3] = system: Hs578T; experiment: as above
Summary of the method: as §1

[4] = system: CAL-148; experiment: as above
Summary of the method: as §1

[5] = system: HCC1599; experiment: as above
Summary of the method: as §1

[6] = system: MDA-MB-468; experiment: as above
Summary of the method: as §1

[7] = system: BT-549; experiment: as above
Summary of the method: as §1

[8] = system: MFM-223; experiment: as above
Summary of the method: as §1

[9] = system: HCC1937; experiment: as above
Summary of the method: as §1

[10] = system: MCF-10A; experiment: as above
Summary of the method: as §1

[11] = system: HDQ-P1; experiment: as above
Summary of the method: as §1

[12] = system: MDA-MB-453; experiment: as above
Summary of the method: as §1

[13] = system: CAL-120; experiment: as above
Summary of the method: as §1

[14] = system: CAL-51; experiment: as above
Summary of the method: as §1

[15] = system: DU-4475; experiment: as above
Summary of the method: as §1

[16] = system: MDA-MB-231; experiment: as above
Summary of the method: as §1

[17] = system: HCC1143; experiment: as above
Summary of the method: as §1

[18] = system: BT-474; experiment: as above
Summary of the method: as §1

[19] = system: MDA-MB-436; experiment: normalised response (% of control), CellTiter-Glo; higher = more viable cells (100 = DMSO, 0 = benzethonium chloride kill control)
Summary of the method: as §1

[20] = system: CAL-85-1; experiment: as above
Summary of the method: as §1

[21] = system: Hs578T; experiment: as above
Summary of the method: as §1

[22] = system: CAL-148; experiment: as above
Summary of the method: as §1

[23] = system: HCC1599; experiment: as above
Summary of the method: as §1

[24] = system: MDA-MB-468; experiment: as above
Summary of the method: as §1

[25] = system: BT-549; experiment: as above
Summary of the method: as §1

[26] = system: MFM-223; experiment: as above
Summary of the method: as §1

[27] = system: SK-BR-3; experiment: as above
Summary of the method: as §1

[28] = system: HCC1937; experiment: as above
Summary of the method: as §1

[29] = system: MCF-10A; experiment: as above
Summary of the method: as §1

[30] = system: HDQ-P1; experiment: as above
Summary of the method: as §1

[31] = system: MDA-MB-453; experiment: as above
Summary of the method: as §1

[32] = system: CAL-120; experiment: as above
Summary of the method: as §1

[33] = system: CAL-51; experiment: as above
Summary of the method: as §1

[34] = system: DU-4475; experiment: as above
Summary of the method: as §1

[35] = system: MDA-MB-231; experiment: as above
Summary of the method: as §1

[36] = system: HCC1143; experiment: as above
Summary of the method: as §1

[37] = system: BT-474; experiment: as above
Summary of the method: as §1

## CCCCC(=O)OCC(=O)[C@]1(O)Cc2c(O)c3c(c(O)c2[C@@H](O[C@H]2C[C@H](NC(=O)C(F)(F)F)[C@H](O)[C@H](C)O2)C1)C(=O)c1c(OC)cccc1C3=O [Valrubicin] (500 nM)
[1]
  normalised response: 131%
[2]
  normalised response: 144%
[3]
  normalised response: 127%
[4]
  normalised response: 56.9%
[5]
  normalised response: 134%
[6]
  normalised response: 276%
[7]
  normalised response: 78.4%
[8]
  normalised response: 108%
[9]
  normalised response: 167%
[10]
  normalised response: 113%
[11]
  normalised response: 131%
[12]
  normalised response: 131%
[13]
  normalised response: 118%
[14]
  normalised response: 67.6%
[15]
  normalised response: 117%
[16]
  normalised response: 157%
[17]
  normalised response: 150%
[18]
  normalised response: 106%
[19]
  normalised response: 57.5%
[20]
  normalised response: 80.3%
[21]
  normalised response: 88.6%
[22]
  normalised response: 30.4%
[23]
  normalised response: 102%
[24]
  normalised response: 47.1%
[25]
  normalised response: 64.1%
[26]
  normalised response: 108%
[27]
  normalised response: 41%
[28]
  normalised response: 77.5%
[29]
  normalised response: 75.6%
[30]
  normalised response: 81.7%
[31]
  normalised response: 120%
[32]
  normalised response: 86.9%
[33]
  normalised response: 50.3%
[34]
  normalised response: 52.3%
[35]
  normalised response: 85.4%
[36]
  normalised response: 75.5%
[37]
  normalised response: 83.8%

## CC1=C(/C=C/C(C)=C/C=C/C(C)=C/C(=O)O)C(C)(C)CCC1 [Tretinoin] (1000 nM)
[1]
  normalised response: 96.4%
[2]
  normalised response: 99.5%
[3]
  normalised response: 59.5%
[4]
  normalised response: 98.5%
[5]
  normalised response: 101%
[6]
  normalised response: 109%
[7]
  normalised response: 101%
[8]
  normalised response: 97.5%
[9]
  normalised response: 93.8%
[10]
  normalised response: 80.4%
[11]
  normalised response: 91.2%
[12]
  normalised response: 114%
[13]
  normalised response: 107%
[14]
  normalised response: 99%
[15]
  normalised response: 105%
[16]
  normalised response: 96.5%
[17]
  normalised response: 115%
[18]
  normalised response: 99.4%
[19]
  normalised response: 95.6%
[20]
  normalised response: 92.2%
[21]
  normalised response: 90.7%
[22]
  normalised response: 78.1%
[23]
  normalised response: 99.3%
[24]
  normalised response: 84.6%
[25]
  normalised response: 101%
[26]
  normalised response: 93.5%
[27]
  normalised response: 70.7%
[28]
  normalised response: 97.7%
[29]
  normalised response: 82%
[30]
  normalised response: 102%
[31]
  normalised response: 97.6%
[32]
  normalised response: 101%
[33]
  normalised response: 111%
[34]
  normalised response: 102%
[35]
  normalised response: 96.8%
[36]
  normalised response: 96.8%
[37]
  normalised response: 97%

## C=CCc1cccc(/C=N/NC(=O)CN2CCN(Cc3ccccc3)CC2)c1O [PAC-1] (1000 nM)
[1]
  normalised response: 89.7%
[2]
  normalised response: 105%
[3]
  normalised response: 104%
[4]
  normalised response: 104%
[5]
  normalised response: 98.4%
[6]
  normalised response: 128%
[7]
  normalised response: 61.6%
[8]
  normalised response: 102%
[9]
  normalised response: 92.5%
[10]
  normalised response: 112%
[11]
  normalised response: 112%
[12]
  normalised response: 106%
[13]
  normalised response: 102%
[14]
  normalised response: 73.1%
[15]
  normalised response: 101%
[16]
  normalised response: 107%
[17]
  normalised response: 119%
[18]
  normalised response: 98.8%
[19]
  normalised response: 86%
[20]
  normalised response: 98.5%
[21]
  normalised response: 103%
[22]
  normalised response: 101%
[23]
  normalised response: 120%
[24]
  normalised response: 101%
[25]
  normalised response: 75.1%
[26]
  normalised response: 100%
[27]
  normalised response: 109%
[28]
  normalised response: 92.7%
[29]
  normalised response: 116%
[30]
  normalised response: 93.3%
[31]
  normalised response: 93.6%
[32]
  normalised response: 97.5%
[33]
  normalised response: 67.2%
[34]
  normalised response: 102%
[35]
  normalised response: 96.8%
[36]
  normalised response: 103%
[37]
  normalised response: 97.9%

## CC(=O)Nc1cccc(-n2c(=O)n(C3CC3)c(=O)c3c(Nc4ccc(I)cc4F)n(C)c(=O)c(C)c32)c1 [Trametinib] (25 nM)
[1]
  normalised response: 97.2%
[2]
  normalised response: 66.6%
[3]
  normalised response: 113%
[4]
  normalised response: 108%
[5]
  normalised response: 105%
[6]
  normalised response: 103%
[7]
  normalised response: 93.6%
[8]
  normalised response: 101%
[9]
  normalised response: 124%
[10]
  normalised response: 81.3%
[11]
  normalised response: 92.3%
[12]
  normalised response: 111%
[13]
  normalised response: 87.6%
[14]
  normalised response: 113%
[15]
  normalised response: 64.6%
[16]
  normalised response: 66.4%
[17]
  normalised response: 116%
[18]
  normalised response: 102%
[19]
  normalised response: 91.2%
[20]
  normalised response: 68.9%
[21]
  normalised response: 83.2%
[22]
  normalised response: 90.7%
[23]
  normalised response: 101%
[24]
  normalised response: 88.7%
[25]
  normalised response: 107%
[26]
  normalised response: 94.6%
[27]
  normalised response: 102%
[28]
  normalised response: 81.3%
[29]
  normalised response: 35.7%
[30]
  normalised response: 61.2%
[31]
  normalised response: 111%
[32]
  normalised response: 71.7%
[33]
  normalised response: 105%
[34]
  normalised response: 0.42%
[35]
  normalised response: 72.1%
[36]
  normalised response: 72.5%
[37]
  normalised response: 73.5%
